Measured values published in patent US20220220152A1, “BIVALENT ANTAGONISTS OF INHIBITORS OF APOPTOSIS PROTEINS” (Hepagene Therapeutics (HK) Limited, priority 2019, published 2022).

Tests used:
cIAP1-BIR3 = molecular target: T1, cIAP1-BIR3 (Homo sapiens, UniProt Q13490); experiment: cIAP1-BIR3 fluorescence polarization binding assay; settings: FP, probe AbuRPFK-5FAM (SM5F) 5 nM, cIAP1-BIR3 15 nM, 60 min at 25° C.
T1 construct: cIAP1-BIR3; purchased Reaction Biology APT-11-370
Method in brief: (§1)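 Fluorescence polarization competition using 5-carboxyfluorescein-labelled peptide probe AbuRPFK-5FAM; protein and compound preincubated 15 min, probe added, then 60 min at 25° C.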

cIAP2-BIR3 = molecular target: T2, cIAP2-BIR3 (Homo sapiens, UniProt Q13489); experiment: cIAP2-BIR3 fluorescence polarization binding assay; settings: FP, probe AbuRPFK-5FAM (SM5F) 5 nM, cIAP2-BIR3 80 nM, 60 min at 25° C.
T2 construct: cIAP2-BIR3; purchased Reaction Biology APT-11-372
T2 sequence (Q13489 238-349 limits assumed): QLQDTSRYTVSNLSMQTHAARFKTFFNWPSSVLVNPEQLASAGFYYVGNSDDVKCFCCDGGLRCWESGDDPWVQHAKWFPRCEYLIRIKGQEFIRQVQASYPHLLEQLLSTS
Method in brief: as §1

XIAP-BIR3 = molecular target: T3, XIAP-BIR3 (Homo sapiens, UniProt P98170); experiment: XIAP-BIR3 fluorescence polarization binding assay; settings: FP, probe AbuRPFK-5FAM (SM5F) 5 nM, XIAP-BIR3 40 nM, 60 min at 25° C.
T3 construct: XIAP-BIR3; purchased Reaction Biology APT-11-374
T3 sequence (P98170 241-356 limits assumed): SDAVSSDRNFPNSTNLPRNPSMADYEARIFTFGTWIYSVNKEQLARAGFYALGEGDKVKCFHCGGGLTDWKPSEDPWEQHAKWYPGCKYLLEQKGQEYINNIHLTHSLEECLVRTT
Method in brief: as §1

T1 sequence (Q13490 253-363 limits assumed): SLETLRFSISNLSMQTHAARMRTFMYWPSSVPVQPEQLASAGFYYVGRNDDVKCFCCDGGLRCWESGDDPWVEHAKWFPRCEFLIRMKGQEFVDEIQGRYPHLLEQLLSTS

IC50 (cIAP1-BIR3) | IC50 (cIAP2-BIR3) | IC50 (XIAP-BIR3) | SMILES
0.001 to 0.01 µM | 0.01 to 0.1 µM | 0.01 to 0.1 µM | CN[C@@H](C)C(=O)N[C@H](C(=O)N1CCC[C@H]1C(=O)N[C@@H]1CCCc2c(Nc3cccc4c3CCC[C@H]4NC(=O)[C@@H]3CCCN3C(=O)[C@@H](NC(=O)[C@H](C)NC)C3CCCCC3)cccc21)C1CCCCC1 [Compound VI, (S)-1-((S)-2-cyclohexyl-2-((S)-2-(methylamino)propanamido)acetyl)-N—((R)-5-(((R)-5-((S)-1-((S)-2-cyclohexyl-2-((S)-2-(methylamino)propanamido)acetyl)pyrrolidine-2-carboxamido)-5,6,7,8-tetrahydronaphthalen-1-yl)amino)-1,2,3,4-tetrahydronaphthalen-1-yl)pyrrolidine-2-carboxamide]
0.001 to 0.01 µM | 0.01 to 0.1 µM | 0.1 to 1 µM | CN[C@@H](C)C(=O)N[C@H](C(=O)N1C[C@@H](O)C[C@H]1C(=O)N[C@@H]1CCCc2c(OCCCCCOc3cccc4c3CCC[C@H]4NC(=O)[C@@H]3C[C@H](O)CN3C(=O)[C@@H](NC(=O)[C@H](C)NC)C3CCCCC3)cccc21)C1CCCCC1 [Compound I-B, (2S,4S)-1-((S)-2-cyclohexyl-2-((S)-2-(methylamino)propanamido)acetyl)-N—((R)-5-((5-(((R)-5-((2S,4S)-1-((S)-2-cyclohexyl-2-((S)-2-(methylamino)propanamido)acetyl)-4-hydroxypyrrolidine-2-carboxamido)-5,6,7,8-tetrahydronaphthalen-1-yl)oxy)pentyl)oxy)-1,2,3,4-tetrahydronaphthalen-1-yl)-4-hydroxypyrrolidine-2-carboxamide]
